Results: the supplement of paper PMC6045584
± gives the standard deviation of the averaged measurements.

How the values were obtained:
[1] = compound: COc1ccc(-c2cc3c(C)nc(N)nc3n([C@H]3CC[C@H](OCCO)CC3)c2=O)cn1; experiment: surviving fraction relative to DMSO-only wells; higher = less growth inhibition; conditions: exposure time: 5 days
In short: (§1)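 Viability values are CellTiter-Glo luminescence readings, given as surviving fraction against the median of DMSO-only wells. The readings were taken after 10 minutes at room temperature, following five days of continuous exposure to inhibitors at 0.5, 1, 5, 10, 50, 100, 500 and 1000 nM that began 24 hours after log-phase tumour cell lines were seeded at 250–500 cells per well in 384-well plates. Every line was screened three times and kept only if replicate Pearson r >0.7 and median Z' >0.3.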

VORINOSTAT = compound: O=C(CCCCCCC(=O)Nc1ccccc1)NO [VORINOSTAT]; experiment: as above; conditions: exposure time: 5 days
In short: as §1

| Test System | surviving fraction ([1]; 0.5 nM) | surviving fraction ([1]; 1 nM) | surviving fraction ([1]; 5 nM) | surviving fraction ([1]; 10 nM) | surviving fraction ([1]; 50 nM) | surviving fraction ([1]; 100 nM) | surviving fraction ([1]; 500 nM) | surviving fraction ([1]; 1000 nM) | surviving fraction (VORINOSTAT; 0.5 nM) | surviving fraction (VORINOSTAT; 1 nM) | surviving fraction (VORINOSTAT; 5 nM) | surviving fraction (VORINOSTAT; 10 nM) | surviving fraction (VORINOSTAT; 50 nM) | surviving fraction (VORINOSTAT; 100 nM) | surviving fraction (VORINOSTAT; 500 nM) | surviving fraction (VORINOSTAT; 1000 nM) |
| --- | --- | --- | --- | --- | --- | --- | --- | --- | --- | --- | --- | --- | --- | --- | --- | --- |
| CAL72 BONE | 1.09 ± 0.055 | 1.06 ± 0.043 | 1.04 ± 0.043 | 1.05 ± 0.027 | 0.993 ± 0.038 | 0.805 ± 0.045 | 0.235 ± 0.014 | 0.214 ± 0.031 | 1.02 ± 0.056 | 1.09 ± 0.022 | 1.08 ± 0.02 | 1.07 ± 0.026 | 1.08 ± 0.029 | 1.07 ± 0.018 | 1.05 ± 0.022 | 1.06 ± 0.042 |
| CAL120 BREAST | 0.942 ± 0.024 | 0.876 ± 0.034 | 0.9035 ± 0.0069 | 0.867 ± 0.025 | 0.674 ± 0.035 | 0.441 ± 0.019 | 0.113 ± 0.025 | 0.0817 ± 0.0065 | 0.944 ± 0.017 | 0.896 ± 0.025 | 0.922 ± 0.013 | 0.883 ± 0.036 | 0.896 ± 0.025 | 0.78 ± 0.009 | 0.4962 ± 0.0023 | 0.248 ± 0.054 |
| CASKI CERVIX | 0.91 ± 0.034 | 0.901 ± 0.034 | 0.779 ± 0.05 | 0.922 ± 0.031 | 0.426 ± 0.022 | 0.147 ± 0.009 | 0.0347 ± 0.0047 | 0.338 ± 0.52 | 0.88 ± 0.024 | 0.942 ± 0.062 | 0.957 ± 0.013 | 0.903 ± 0.029 | 0.971 ± 0.046 | 0.955 ± 0.034 | 0.496 ± 0.02 | 0.448 ± 0.027 |
| CHLA90 AUTONOMIC GANGLIA | 1.05 ± 0.018 | 1 ± 0.061 | 0.951 ± 0.077 | 0.86 ± 0.04 | 0.753 ± 0.015 | 0.586 ± 0.045 | 0.206 ± 0.014 | 0.102 ± 0.0045 | 0.971 ± 0.026 | 1.08 ± 0.046 | 0.976 ± 0.013 | 0.839 ± 0.047 | 1.02 ± 0.052 | 0.982 ± 0.063 | 0.977 ± 0.022 | 0.844 ± 0.053 |
| CME SYNOVIAL | 1.01 ± 0.027 | 1.09 ± 0.2 | 1.04 ± 0.042 | 1.12 ± 0.045 | 0.743 ± 0.083 | 0.681 ± 0.051 | 0.252 ± 0.022 | 0.28 ± 0.019 | 1.25 ± 0.12 | 1.15 ± 0.087 | 1.21 ± 0.061 | 0.882 ± 0.044 | 1.28 ± 0.1 | 1.08 ± 0.043 | 0.607 ± 0.089 | 0.383 ± 0.027 |
| COLO320DM LARGE INTESTINE | 1.07 ± 0.051 | 1.08 ± 0.08 | 0.994 ± 0.05 | 0.906 ± 0.029 | 0.5533 ± 0.0034 | 0.383 ± 0.037 | 0.215 ± 0.0076 | 0.18 ± 0.0044 | 1.1 ± 0.13 | 1.18 ± 0.15 | 1.12 ± 0.086 | 1.04 ± 0.049 | 1.22 ± 0.17 | 1.07 ± 0.14 | 0.577 ± 0.041 | 0.177 ± 0.0091 |
| DU4475 BREAST | 0.752 ± 0.16 | 0.767 ± 0.18 | 0.667 ± 0.25 | 0.639 ± 0.24 | 0.412 ± 0.074 | 0.301 ± 0.057 | 0.0443 ± 0.021 | 0.0323 ± 0.006 | 1.41 ± 0.74 | 1.08 ± 0.76 | 1.05 ± 0.56 | 1.25 ± 0.66 | 1.07 ± 0.57 | 0.952 ± 0.38 | 0.627 ± 0.22 | 0.431 ± 0.17 |
| H23 LUNG | 0.989 ± 0.016 | 0.98 ± 0.078 | 0.872 ± 0.063 | 0.731 ± 0.042 | 0.422 ± 0.018 | 0.265 ± 0.028 | 0.127 ± 0.0091 | 0.0933 ± 0.005 | 1.04 ± 0.048 | 0.983 ± 0.034 | 1.04 ± 0.036 | 1 ± 0.0087 | 1.18 ± 0.034 | 1.27 ± 0.037 | 1.44 ± 0.1 | 1.29 ± 0.062 |
| HCC78 LUNG | 0.928 ± 0.31 | 0.845 ± 0.15 | 0.653 ± 0.27 | 0.588 ± 0.17 | 0.28 ± 0.048 | 0.104 ± 0.0093 | 0.022 ± 0.0044 | 0.0197 ± 0.0023 | 1.01 ± 0.12 | 0.818 ± 0.22 | 0.852 ± 0.12 | 1 ± 0.091 | 0.947 ± 0.22 | 1.06 ± 0.019 | 0.326 ± 0.042 | 0.0463 ± 0.011 |
| HCC202 BREAST | 1.18 ± 0.25 | 1.37 ± 0.17 | 0.947 ± 0.27 | 0.94 ± 0.21 | 0.635 ± 0.18 | 0.295 ± 0.047 | 0.0793 ± 0.018 | 0.048 ± 0.013 | 1.19 ± 0.26 | 1.12 ± 0.13 | 1.31 ± 0.11 | 1.12 ± 0.12 | 0.808 ± 0.14 | 0.777 ± 0.34 | 0.476 ± 0.12 | 0.295 ± 0.049 |
